Reference: patent US7262185B2, “Benzazepine derivative, process for producing the same, and use” (Takeda Chemical Industries Ltd., priority 2001, dated 2007)

Compound	melting point [°C]
CCCCOCCOc1ccc(-c2ccc3c(c2)C=C(C(=O)Nc2ccc(C(O)c4c(C)ccc[n+]4[O-])cc2)CCN3C(=O)C(F)(F)F)cc1 (centres unmarked) [Compound 100, 7-[4-(2-butoxyethoxy)phenyl]-N-[4-[hydroxy(3-methyl-1-oxidopyridin-2-yl)methyl]phenyl]-1-trifluoroacetyl-2,3-dihydro-1H-1-benzazepine-4-carboxamide]	109 to 112
CCCCOCCOc1ccc(-c2ccc3c(c2)C=C(C(=O)Nc2ccc(C(O)c4ccc(C)cn4)cc2)CCN3C(=O)C(F)(F)F)cc1 (centres unmarked) [Compound 103, 7-[4-(2-butoxyethoxy)phenyl]-N-[4-[hydroxy(5-methylpyridin-2-yl)methyl]phenyl]-1-trifluoroacetyl-2,3-dihydro-1H-1-benzazepine-4-carboxamide]	110 to 113
CCCCOCCOc1ccc(-c2ccc3c(c2)C=C(C(=O)Nc2ccc(C(O)c4ccc(Cl)cn4)cc2)CCN3C(=O)C(F)(F)F)cc1 (centres unmarked) [Compound 107, 7-[4-(2-butoxyethoxy)phenyl]-N-[4-[hydroxy(5-chloropyridin-2-yl)methyl]phenyl]-1-trifluoroacetyl-2,3-dihydro-1H-1-benzazepine-4-carboxamide]	144 to 146
CCCCOCCOc1ccc(-c2ccc3c(c2)C=C(C(=O)Nc2ccc(C(O)c4ccc(Cl)c[n+]4[O-])cc2)CCN3C(=O)C(F)(F)F)cc1 (centres unmarked) [Compound 108, 7-[4-(2-butoxyethoxy)phenyl]-N-[4-[hydroxy(5-chloro-1-oxidopyridin-2-yl)methyl]phenyl]-1-trifluoroacetyl-2,3-dihydro-1H-1-benzazepine-4-carboxamide]	200 to 203
CCCCOCCOc1ccc(-c2ccc3c(c2)C=C(C(=O)Nc2ccc(C(O)c4ccc(Cl)c[n+]4[O-])cc2)CCN3CC(C)C)cc1 (centres unmarked) [Compound 110, 7-[4-(2-butoxyethoxy)phenyl]-N-[4-[hydroxy(5-chloro-1-oxidopyridin-2-yl)methyl]phenyl]-1-isobutyl-2,3-dihydro-1H-1-benzazepine-4-carboxamide]	137 to 139
CCCCOCCOc1ccc(-c2ccc3c(c2)C=C(C(=O)Nc2ccc(C(O)c4ncccc4OCCC)cc2)CCN3C(=O)C(F)(F)F)cc1 (centres unmarked) [Compound 111, 7-[4-(2-butoxyethoxy)phenyl]-N-[4-[hydroxy(3-propoxypyridin-2-yl)methyl]phenyl]-1-trifluoroacetyl-2,3-dihydro-1H-1-benzazepine-4-carboxamide]	154 to 157
CCCCOCCOc1ccc(-c2ccc3c(c2)C=C(C(=O)Nc2ccc(C(O)c4c(OCCC)ccc[n+]4[O-])cc2)CCN3C(=O)C(F)(F)F)cc1 (centres unmarked) [Compound 112, 7-[4-(2-butoxyethoxy)phenyl]-N-[4-[hydroxy(1-oxido-3-propoxypyridin-2-yl)methyl]phenyl]-1-trifluoroacetyl-2,3-dihydro-1H-1-benzazepine-4-carboxamide]	144 to 146
CCCCOCCOc1ccc(-c2ccc3c(c2)C=C(C(=O)Nc2ccc(C(O)c4c(OCCC)ccc[n+]4[O-])cc2)CCN3)cc1 (centres unmarked) [Compound 113, 7-[4-(2-butoxyethoxy)phenyl]-N-[4-[hydroxy(1-oxido-3-propoxypyridine-2-yl)methyl]phenyl]-2,3-dihydro-1H-1-benzazepine-4-carboxamide]	148 to 149
CCCCOCCOc1ccc(-c2ccc3c(c2)C=C(C(=O)Nc2ccc(CSc4nncs4)cc2)CCN3CC(C)C)cc1 [Compound 115, 7-[4-(2-butoxyethoxy)phenyl]-N-[4-(1,3,4-thiadiazol-2-ylthiomethyl)phenyl]-1-isobutyl-2,3-dihydro-1H-1-benzazepine-4-carboxamide]	77 to 79
CCCCOCCOc1ccc(-c2ccc3c(c2)C=C(C(=O)Nc2ccc(CSc4nnc(C)o4)cc2)CCN3CC(C)C)cc1 [Compound 116, 7-[4-(2-butoxyethoxy)phenyl]-N-[4-(5-methyl-1,3,4-oxadiazol-2-ylthiomethyl)phenyl]-1-isobutyl-2,3-dihydro-1H-1-benzazepine-4-carboxamide]	107 to 109
CCCCOCCOc1ccc(-c2ccc3c(c2)C=C(C(=O)Nc2ccc(C[S+]([O-])c4nncn4C)cc2)CCN3CC(C)C)cc1 (centres unmarked) [Compound 118, 7-[4-(2-butoxyethoxy)phenyl]-N-[4-(4-methyl-4H-1,2,4-triazol-3-ylsulfinylmethyl)phenyl]-1-isobutyl-2,3-dihydro-1H-1-benzazepine-4-carboxamide]	87 to 89
CCCCOCCOc1ccc(-c2ccc3c(c2)C=C(C(=O)Nc2ccc([S+]([O-])Cc4ncnn4C)cc2)CCN3CC(C)C)cc1 (centres unmarked) [Compound 124, 7-[4-(2-butoxyethoxy)phenyl]-N-[4-(1-methyl-1H-1,2,4-triazol-5-ylmethylsulfinyl)phenyl]-1-isobutyl-2,3-dihydro-1H-1-benzazepine-4-carboxamide]	135 to 138
CCCCOCCOc1ccc(-c2ccc3c(c2)C=C(C(=O)Nc2ccc([S+]([O-])Cc4ncn(C)n4)cc2)CCN3CC(C)C)cc1 (centres unmarked) [Compound 126, 7-[4-(2-butoxyethoxy)phenyl]-1-isobutyl-N-[4-(1-methyl-1H-1,2,4-triazol-3-ylmethylsulfinyl)phenyl]-2,3-dihydro-1H-benzazepine-4-carboxamide]	112 to 114
CCCCOCCOc1ccc(-c2ccc3c(c2)C=C(C(=O)Nc2ccc(S(=O)(=O)Cc4ncn(C)n4)cc2)CCN3CC(C)C)cc1 [Compound 127, 7-[4-(2-butoxyethoxy)phenyl]-1-isobutyl-N-[4-(1-methyl-1H-1,2,4-triazol-3-ylmethylsulfonyl)phenyl]-2,3-dihydro-1H-benzazepine-4-carboxamide]	205 to 208
CCCCOCCOc1ccc(-c2ccc3c(c2)C=C(C(=O)Nc2ccc(SCc4ncon4)cc2)CCN3CC(C)C)cc1 [Compound 128, 7-[4-(2-butoxyethoxy)phenyl]-1-isobutyl-N-[4-(1,2,4-oxadiazol-3-ylmethylthio)phenyl]-2,3-dihydro-1H-benzazepine-4-carboxamide]	112 to 115
CCCCOCCOc1ccc(-c2ccc3c(c2)C=C(C(=O)Nc2ccc([S+]([O-])Cc4ncon4)cc2)CCN3CC(C)C)cc1 (centres unmarked) [Compound 129, 7-[4-(2-butoxyethoxy)phenyl]-1-isobutyl-N-[4-(1,2,4-oxadiazol-3-ylmethylsulfinyl)phenyl]-2,3-dihydro-1H-benzazepine-4-carboxamide]	142 to 144
CCCCOCCOc1ccc(-c2ccc3c(c2)C=C(C(=O)Nc2ccc([S+]([O-])Cc4nncn4C)cc2)CCN3CC(C)C)cc1 (centres unmarked) [Compound 131, 7-[4-(2-butoxyethoxy)phenyl]-N-[4-(4-methyl-4H-1,2,4-triazol-3-ylmethylsulfinyl)phenyl]-1-isobutyl-2,3-dihydro-1H-1-benzazepine-4-carboxamide]	103 to 105
CCCCOCCOc1ccc(-c2ccc3c(c2)C=C(C(=O)Nc2ccc([S+]([O-])Cc4nncn4C)cc2)CCN3CCC)cc1 (centres unmarked) [Compound 133, 7-[4-(2-butoxyethoxy)phenyl]-N-[4-(4-methyl-4H-1,2,4-triazol-3-ylmethylsulfinyl)phenyl]-1-propyl-2,3-dihydro-1H-1-benzazepine-4-carboxamide]	101 to 103
CCCCOCCOc1ccc(-c2ccc3c(c2)C=C(C(=O)Nc2ccc([S+]([O-])Cc4nncn4CCCC)cc2)CCN3CC(C)C)cc1 (centres unmarked) [Compound 143, 7-[4-(2-butoxyethoxy)phenyl]-N-[4-(4-n-butyl-4H-1,2,4-triazol-3-ylmethylsulfinyl)phenyl]-1-isobutyl-2,3-dihydro-1H-benzazepine-4-carboxamide]	178 to 180
CCCCOCCOc1ccc(-c2ccc3c(c2)C=C(C(=O)Nc2ccc([S+]([O-])Cc4nncn4CCCC)cc2)CCN3CCC)cc1 (centres unmarked) [Compound 145, 7-[4-(2-butoxyethoxy)phenyl]-N-[4-(4-n-butyl-4H-1,2,4-triazol-3-ylmethylsulfinyl)phenyl]-1-propyl-2,3-dihydro-1H-benzazepine-4-carboxamide]	157 to 160
CCCCOCCOc1ccc(-c2ccc3c(c2)C=C(C(=O)Nc2ccc([S+]([O-])Cc4nnc(SC)n4CCC)cc2)CCN3CC(C)C)cc1 (centres unmarked) [Compound 149, 7-[4-(2-butoxyethoxy)phenyl]-1-isobutyl-N-[4-(5-methylthio-4-propyl-4H-1,2,4-triazol-3-ylmethylsulfinyl)phenyl]-2,3-dihydro-1H-benzazepine-4-carboxamide]	150 to 152
CCCCOCCOc1ccc(-c2ccc3c(c2)C=C(C(=O)Nc2ccc(N(C)Cc4nncn4CCC)cc2)CCN3CC(C)C)cc1 [Compound 150, 7-[4-(2-butoxyethoxy)phenyl]-1-isobutyl-N-[4-[methyl(4-propyl-4H-1,2,4-triazol-3-ylmethyl)amino]phenyl]-2,3-dihydro-1H-benzazepine-4-carboxamide]	134 to 136
CCCCOCCOc1ccc(-c2ccc3c(c2)C=C(C(=O)Nc2ccc(N(C)Cc4nncn4CCC)cc2)CCN3CCC)cc1 [Compound 151, 7-[4-(2-butoxyethoxy)phenyl]-N-[4-[methyl(4-propyl-4H-1,2,4-triazol-3-ylmethyl)amino]phenyl]-1-propyl-2,3-dihydro-1H-benzazepine-4-carboxamide]	131 to 133
CCCCOCCOc1ccc(-c2ccc3c(c2)C=C(C(=O)Nc2ccc([S+]([O-])CCn4cnnc4)cc2)CCN3CC(C)C)cc1 (centres unmarked) [Compound 155, 7-[4-(2-butoxyethoxy)phenyl]-N-[4-(4H-1,2,4-triazol-4-ylethylsulfinyl)phenyl]-1-isobutyl-2,3-dihydro-1H-benzazepine-4-carboxamide]	168 to 170
CCCCOCCOc1ccc(-c2ccc3c(c2)C=C(C(=O)Nc2ccc(SCCn4cnnc4)cc2)CCN3CCC)cc1 [Compound 156, 7-[4-(2-butoxyethoxy)phenyl]-N-[4-(4H-1,2,4-triazol-4-ylethylthio)phenyl]-1-propyl-2,3-dihydro-1H-benzazepine-4-carboxamide]	114 to 115
CCCCOCCOc1ccc(-c2ccc3c(c2)C=C(C(=O)Nc2ccc([S+]([O-])Cc4c(C)nc5ccccn45)cc2)CCN3CCC)cc1 (centres unmarked) [Compound 165, 7-[4-(2-butoxyethoxy)phenyl]-N-[4-(2-methylimidazo[1,2-a]pyridin-3-ylmethylsulfinyl)phenyl]-1-propyl-2,3-dihydro-1H-benzazepine-4-carboxamide]	134 to 137
